Reference: US20030215462A1, “Use of UGT inhibitors to increase bioavailability” (priority 2001, published 2003)

Legend:
[1] = test system: T1, UGT enzymes of human liver microsomes; experiment: Kinetic and Ki studies of inhibitors of 7-HFC glucuronidation in human liver microsomes; format: biochemical; details: 7-HFC 20-500 μM
T1 construct: percentage of control metabolism, 7-HFC glucuronidation; percentage of control metabolism, 7-HFC glucuronidation

[2] = test system: UGT enzymes of pooled human jejunum microsomes; experiment: Inhibition of estradiol (E2) glucuronidation in pooled human jejunum microsomes; format: biochemical; details: jejunum HJ61; E2 50 μM; inhibitor 50 μM
From the text: Compounds were eluted using a binary solvent gradient system where solvent A was dilute phosphoric acid (pH 3) and solvent B was 80:20 acetonitrile-methanol. […] Detection was at 280 nm.

[3] = test system: UGT enzymes of human liver microsomes; experiment: Inhibition of raloxifene glucuronidation (G1, G2) in human liver microsomes; format: biochemical; details: for % of control metabolism (SD, n = 3), raloxifene glucuronide G1 / % of control metabolism (SD, n = 3), raloxifene glucuronide G2: human liver microsomes 250 μg/ml, 15 min
From the text: Compounds were eluted using a binary solvent gradient system. […] Solvent B was methanol. […] Detection was at 280 nm.

UGT1A9 = target: T2, UGT1A9 (Homo sapiens, UniProt O60656); experiment: Inhibition of raloxifene glucuronidation by recombinant UGT1A9 Supersomes; details: for activity at 15 min, 25 µM / activity at 15 min, 50 µM: human, Supersomes with recombinant human UGT1A9, pH 7.5, probe raloxifene 50 μM; for Inhibition of raloxifene glucuronidation, UGT1A9, second line per inhibitor (G2): second line (G2, metabolite not given), raloxifene 50 μM, 250 μg/ml Supersomes, 1 mM UDPGA, 15 min
T2 sequence (O60656 26-530): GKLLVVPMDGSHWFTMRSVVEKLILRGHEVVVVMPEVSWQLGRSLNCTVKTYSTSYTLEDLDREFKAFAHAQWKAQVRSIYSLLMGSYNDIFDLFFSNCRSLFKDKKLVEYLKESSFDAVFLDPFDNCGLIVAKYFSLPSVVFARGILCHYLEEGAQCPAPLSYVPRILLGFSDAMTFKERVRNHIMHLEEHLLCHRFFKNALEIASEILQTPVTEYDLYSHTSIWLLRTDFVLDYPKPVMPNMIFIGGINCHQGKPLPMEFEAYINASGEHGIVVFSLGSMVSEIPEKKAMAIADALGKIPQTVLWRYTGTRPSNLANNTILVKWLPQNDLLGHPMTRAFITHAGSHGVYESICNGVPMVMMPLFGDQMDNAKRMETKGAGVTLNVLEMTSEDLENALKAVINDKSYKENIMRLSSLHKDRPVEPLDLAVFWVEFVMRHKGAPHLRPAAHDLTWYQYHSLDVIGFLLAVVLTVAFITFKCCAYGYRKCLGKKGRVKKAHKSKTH

UGT1A1 = target: T3, UGT1A1 (Homo sapiens, UniProt P22309); experiment: Inhibition of raloxifene glucuronidation by recombinant UGT1A1 Supersomes; details: human; for activity at 15 min, 25 µM: inhibitor 25 μM; for activity at 15 min, 50 µM: inhibitor 50 μM
T3 sequence (P22309 26-533): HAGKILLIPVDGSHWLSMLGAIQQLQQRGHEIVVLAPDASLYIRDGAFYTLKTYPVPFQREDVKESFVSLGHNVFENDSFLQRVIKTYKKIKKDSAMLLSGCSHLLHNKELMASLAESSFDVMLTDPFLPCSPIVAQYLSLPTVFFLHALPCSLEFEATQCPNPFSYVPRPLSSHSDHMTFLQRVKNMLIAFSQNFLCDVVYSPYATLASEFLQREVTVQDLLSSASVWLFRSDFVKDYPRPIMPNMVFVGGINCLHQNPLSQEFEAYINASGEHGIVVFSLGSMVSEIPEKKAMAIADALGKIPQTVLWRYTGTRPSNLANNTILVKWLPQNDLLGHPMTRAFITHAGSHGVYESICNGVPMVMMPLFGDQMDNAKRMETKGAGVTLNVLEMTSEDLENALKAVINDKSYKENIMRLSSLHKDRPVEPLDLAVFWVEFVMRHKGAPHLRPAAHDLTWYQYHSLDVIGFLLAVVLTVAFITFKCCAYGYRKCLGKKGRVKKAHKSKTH
Description: (§1) Compounds were eluted using a binary solvent gradient system. Solvent A was water brought to pH 8 with NH4OH. Solvent B was methanol. Solvent flow rate was 1 ml/min and the column temperature was maintained at 50° C. Detection was at 280 nm. […] The system was then returned to the initial conditions and equilibrated for 3 min.

UGT1A3 = target: T4, UGT1A3 (Homo sapiens, UniProt P35503); experiment: Inhibition of raloxifene glucuronidation by recombinant UGT1A3 Supersomes; details: human; for activity at 15 min, 25 µM: inhibitor 25 μM; for activity at 15 min, 50 µM: inhibitor 50 μM
T4 sequence (P35503 29-534): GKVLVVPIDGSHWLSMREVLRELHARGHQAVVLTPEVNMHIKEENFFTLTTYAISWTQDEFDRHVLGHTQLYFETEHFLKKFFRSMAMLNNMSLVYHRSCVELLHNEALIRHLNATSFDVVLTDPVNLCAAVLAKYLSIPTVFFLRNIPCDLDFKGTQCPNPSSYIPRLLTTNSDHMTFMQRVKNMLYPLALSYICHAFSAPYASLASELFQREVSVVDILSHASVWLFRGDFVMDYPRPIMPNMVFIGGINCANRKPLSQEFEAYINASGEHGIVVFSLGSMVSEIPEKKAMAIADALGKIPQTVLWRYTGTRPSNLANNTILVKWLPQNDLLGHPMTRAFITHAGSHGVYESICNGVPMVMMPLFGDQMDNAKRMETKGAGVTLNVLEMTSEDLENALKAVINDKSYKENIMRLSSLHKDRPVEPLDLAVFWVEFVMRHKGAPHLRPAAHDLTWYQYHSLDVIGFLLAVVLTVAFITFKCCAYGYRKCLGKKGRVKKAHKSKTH
Description: as §1

[4] = inhibitor 10 μM, raloxifene 50 μM
[5] = inhibitor 25 μM, raloxifene 50 μM
[6] = inhibitor 50 μM, raloxifene 50 μM
[7] = inhibitor 100 μM, raloxifene 50 μM
[8] = inhibitor 500 μM, raloxifene 50 μM
[9] = liver lot 032101, inhibitor 50 μM
[10] = liver lot 062101, inhibitor 50 μM
[11] = liver lot 083000, inhibitor 50 μM
[12] = raloxifene 50 μM, inhibitor 10 μM
[13] = raloxifene 50 μM, inhibitor 25 μM
[14] = raloxifene 50 μM, inhibitor 50 μM
[15] = raloxifene 50 μM, inhibitor 100 μM
[16] = Supersomes with recombinant human UGT1A1, pH 7.5, probe raloxifene 50 μM, formation of glucuronide G1, % of control metabolism, raloxifene G1, UGT1A1
[17] = Supersomes with recombinant human UGT1A1, pH 7.5, probe raloxifene 50 μM, formation of glucuronide G1, Inhibition of raloxifene glucuronidation, G1, UGT1A1, G1, raloxifene 50 μM, 250 μg/ml Supersomes, 1 mM UDPGA, 15 min
[18] = Supersomes with recombinant human UGT1A1, pH 7.5, probe raloxifene 50 μM, formation of glucuronide G2, % of control metabolism, raloxifene G2, UGT1A1
[19] = recombinant UGT1A1 Supersomes, pH 7.5, probe raloxifene 50 μM (formation of glucuronide G2), Inhibition of raloxifene glucuronidation, G2, UGT1A1, G2, raloxifene 50 μM, 250 μg/ml Supersomes, 1 mM UDPGA, 15 min
[20] = Supersomes with recombinant human UGT1A3, pH 7.5, probe raloxifene 50 μM, formation of glucuronide G1, % of control metabolism, raloxifene G1, UGT1A3
[21] = Supersomes with recombinant human UGT1A3, pH 7.5, probe raloxifene 50 μM, formation of glucuronide G2, % of control metabolism, raloxifene G2, UGT1A3
[22] = recombinant UGT1A3 Supersomes, pH 7.5, probe raloxifene 50 μM (formation of glucuronide G1), Inhibition of raloxifene glucuronidation, G1, UGT1A3, G1, raloxifene 50 μM, 250 μg/ml Supersomes, 1 mM UDPGA, 15 min
[23] = recombinant UGT1A3 Supersomes, pH 7.5, probe raloxifene 50 μM (formation of glucuronide G2), Inhibition of raloxifene glucuronidation, G2, UGT1A3, G2, raloxifene 50 μM, 250 μg/ml Supersomes, 1 mM UDPGA, 15 min

## O=C(O[C@@H]1Cc2c(O)cc(O)cc2O[C@H]1c1cc(O)c(O)c(O)c1)c1cc(O)c(O)c(O)c1 [Gallocatechin gallate]
[1]
  Vmax of 7-HFC glucuronidation (fit of the experiment with this inhibitor): 54 ± 3 nmol/min/mg
[1]; read-out: Km of 7-HFC glucuronidation (fit of the experiment with this inhibitor)
  Km: 75 ± 7 µM
[2]
  residual metabolism (% of control), E2-3-β-D-glucuronide: 25 (1) %
  residual metabolism (% of control), E2-17-β-D-glucuronide: 39 (1) %
[3]; [4]
  % of control metabolism (SD, n = 3), raloxifene glucuronide G1: 80 (6) %
  % of control metabolism (SD, n = 3), raloxifene glucuronide G2: 83 (4) %
[3]; [5]
  % of control metabolism (SD, n = 3), raloxifene glucuronide G1: 62 (7) %
  % of control metabolism (SD, n = 3), raloxifene glucuronide G2: 64 (4) %
[3]; [6]
  % of control metabolism (SD, n = 3), raloxifene glucuronide G1: 45 (2) %
  % of control metabolism (SD, n = 3), raloxifene glucuronide G2: 47 (2) %
[3]; [7]
  % of control metabolism (SD, n = 3), raloxifene glucuronide G1: 20 (1) %
  % of control metabolism (SD, n = 3), raloxifene glucuronide G2: 29 (1) %
[3]; [8]
  % of control metabolism (SD, n = 3), raloxifene glucuronide G1: 0 (0) %
  % of control metabolism (SD, n = 3), raloxifene glucuronide G2: 0 (0) %
[3]; [9]
  % of control metabolism, raloxifene G1: 29 (1) %
  % of control metabolism, raloxifene G2: 28 (0) %
[3]; [10]
  % of control metabolism, raloxifene G1: 40 (3) %
  % of control metabolism, raloxifene G2: 22 (1) %
[3]; [11]
  % of control metabolism, raloxifene G1: 45 (2) %
  % of control metabolism, raloxifene G2: 47 (2) %
[3]; [12]
  % of control metabolism, raloxifene G1: 80 (6) %
  % of control metabolism, raloxifene G2: 83 (4) %
[3]; [13]
  % of control metabolism, raloxifene G1: 62 (7) %
  % of control metabolism, raloxifene G2: 64 (4) %
[3]; [14]
  % of control metabolism, raloxifene G1: 45 (2) %
  % of control metabolism, raloxifene G2: 47 (2) %
[3]; [15]
  % of control metabolism, raloxifene G1: 20 (1) %
  % of control metabolism, raloxifene G2: 29 (1) %
UGT1A9; formation of glucuronide G1, % of control metabolism, raloxifene G1, UGT1A9, inhibitor 25 μM
  activity at 15 min, 25 µM: 72%
UGT1A9; formation of glucuronide G1, % of control metabolism, raloxifene G1, UGT1A9, inhibitor 50 μM
  activity at 15 min, 50 µM: 47%
UGT1A9; formation of glucuronide G2, % of control metabolism, raloxifene G2, UGT1A9, inhibitor 25 μM
  activity at 15 min, 25 µM: 63%
UGT1A9; formation of glucuronide G2, % of control metabolism, raloxifene G2, UGT1A9, inhibitor 50 μM
  activity at 15 min, 50 µM: 44%
UGT1A9; inhibitor 25 μM
  Inhibition of raloxifene glucuronidation, UGT1A9, second line per inhibitor (G2): 63 (4)
UGT1A9; inhibitor 50 μM
  Inhibition of raloxifene glucuronidation, UGT1A9, second line per inhibitor (G2): 44 (2)
UGT1A1; Supersomes with recombinant human UGT1A1, pH 7.5, probe raloxifene 50 μM, formation of glucuronide G1
  activity at 15 min: 79%
UGT1A1; [16]
  activity at 15 min, 25 µM: 52%
  activity at 15 min, 50 µM: 30%
UGT1A1; [17]
  activity at 15 min, 25 µM: 52%
  activity at 15 min, 50 µM: 30%
UGT1A1; [18]
  activity at 15 min, 25 µM: 54%
  activity at 15 min, 50 µM: 32%
UGT1A1; recombinant UGT1A1 Supersomes, pH 7.5, probe raloxifene 50 μM (formation of glucuronide G2)
  activity at 15 min: 76%
UGT1A1; [19]
  activity at 15 min, 25 µM: 54%
  activity at 15 min, 50 µM: 32%
UGT1A3; [20]
  activity at 15 min, 25 µM: 65%
  activity at 15 min, 50 µM: 39%
UGT1A3; [21]
  activity at 15 min, 25 µM: 70%
  activity at 15 min, 50 µM: 38%
UGT1A3; [22]
  activity at 15 min, 25 µM: 64%
  activity at 15 min, 50 µM: 39%
UGT1A3; [23]
  activity at 15 min, 25 µM: 70%
  activity at 15 min, 50 µM: 38%
